Data taken from US4317775A (Hoffmann-La Roche Inc., priority 1980, dated 1982).
Counter-ions that a name gives are not always drawn.

What was measured:
Streptococcus pyogenes = experiment: In vitro activity (MIC/MBC), Streptococcus pyogenes; assay type: cell-based; conditions: for MBC: read-out: Minimum Inhibitory Concentration (MBC); for MIC: read-out: Minimum Inhibitory Concentration (MIC)
Source text: (§1) MIC is the Minimum Inhibitory Concentration. MBC is the Minimum Bactericidal Concentration.
(§2) Results reported in Table 3(a) are reported as MIC defined above and results reported in Table 3(b) are reported as MBC defined above.

[1] = system: Streptococcus pneumoniae I; experiment: In vitro activity (MIC/MBC), Streptococcus pneumoniae I; assay type: cell-based; conditions: for MBC: read-out: Minimum Inhibitory Concentration (MBC); for MIC: read-out: Minimum Inhibitory Concentration (MIC)
Source text: as §1, §2

Staphylococcus aureus = experiment: In vitro activity (MIC/MBC), Staphylococcus aureus; assay type: cell-based; conditions: for MBC: read-out: Minimum Inhibitory Concentration (MBC); for MIC: read-out: Minimum Inhibitory Concentration (MIC)
Source text: as §1, §2

Escherichia coli = experiment: In vitro activity (MIC/MBC), Escherichia coli; assay type: cell-based; conditions: for MBC: read-out: Minimum Inhibitory Concentration (MBC); for MIC: read-out: Minimum Inhibitory Concentration (MIC)
Source text: as §1, §2

Klebsiella pneumoniae = experiment: In vitro activity (MIC/MBC), Klebsiella pneumoniae; assay type: cell-based; conditions: for MBC: read-out: Minimum Inhibitory Concentration (MBC); for MIC: read-out: Minimum Inhibitory Concentration (MIC)
Source text: as §1, §2

[2] = system: Salmonella schottmuelleri; experiment: In vitro activity (MIC/MBC), Salmonella schottmuelleri; assay type: cell-based; conditions: for MBC: Salmonella schottmuelleri, read-out: Minimum Inhibitory Concentration (MBC); for MIC: Salmonella, read-out: Minimum Inhibitory Concentration (MIC)
Source text: as §1, §2

Salmonella typhosa = experiment: In vitro activity (MIC/MBC), Salmonella typhosa; assay type: cell-based; conditions: Salmonella enterica; for MBC: read-out: Minimum Inhibitory Concentration (MBC), MBC, Salmonella typhosa; for MIC: read-out: Minimum Inhibitory Concentration (MIC), Salmonella typhosa
Source text: as §1, §2

S. pyogenes = experiment: In vivo activity against systemic infection in mice, S. pyogenes
Source text: (§3) The PD50 is the protective dose for 50% of the animals treated against a challenge organism.

S. pneumoniae I = experiment: In vivo activity against systemic infection in mice, S. pneumoniae I
Source text: as §3

E. coli = experiment: In vivo activity against systemic infection in mice, E. coli; conditions: in mg/kg
Source text: as §3

K. pneumoniae = experiment: In vivo activity against systemic infection in mice, K. pneumoniae; conditions: in mg/kg
Source text: as §3

S. schottmuelleri = experiment: In vivo activity against systemic infection in mice, S. schottmuelleri
Source text: as §3

S. typhosa = experiment: In vivo activity against systemic infection in mice, S. typhosa
Source text: as §3

in vivo = conditions: mouse
[3] = Stability in aqueous solution (percent retention); assay type: physicochemical; conditions: for Percent Retention: 6 hrs + 5° C., 192 hrs
Method: The stability of the compound was determined in 0.9% saline solution, 5% aqueous dextrose solution and in water, both at room temperature and/or 5° C.

S. aureus = experiment: In vivo activity against systemic infection in mice, S. aureus; conditions: in mg/kg
Source text: as §3

[4] = system: Streptococcus pneumonia II; experiment: In vitro activity (MIC/MBC), Streptococcus pneumonia II; assay type: cell-based; conditions: Streptococcus pneumoniae
Source text: as §1, §2

S. pneumoniae II = experiment: In vivo activity against systemic infection in mice, S. pneumoniae II
Source text: as §3

P. mirabilis = experiment: In vivo activity against systemic infection in mice, P. mirabilis; conditions: in mg/kg
Source text: as §3

[5] = 5% dextrose in water, 2.10 mg/ml, RT
[6] = 5% dextrose in water, 2.20 mg/ml, 5° C.
[7] = 5% dextrose in water, 30 mg/ml, RT
[8] = 5% dextrose in water, 33 mg/ml, 5° C.
[9] = aqueous concentrate, 155 mg/ml, 5° C.

For `CC1(C)S[C@@H]2[C@H](NC(=O)[C@H](NC3CCCO3)c3ccc(O)cc3)C(=O)N2[C@H]1C(=O)O` (relative stereo) [Compound I, {2S-[2α,5α,6β(S*)]}-6-{[2-tetrahydrofuranylamino(4-hydroxyphenyl)acetyl]amino}-3,3-dimethyl-7-oxo-4-thia-1-azabicyclo[3.2.0]heptane-2-carboxylic acid sodium salt], the MBC (Streptococcus pyogenes) was 2.84 µg/mL, the MIC (Streptococcus pyogenes) was 0.022 µg/mL and the MBC [1] was 0.022 µg/mL. The MIC [1] was 0.022 µg/mL, the MBC (Staphylococcus aureus) was 0.177 µg/mL and the MIC (Staphylococcus aureus) was 0.177 µg/mL. For the same molecule, the MBC (Escherichia coli) was 5.69 µg/mL, the MIC (Escherichia coli) was 5.69 µg/mL and the MBC (Klebsiella pneumoniae) was 0.71 µg/mL. The MIC (Klebsiella pneumoniae) was 0.71 µg/mL, the MBC [2] was 1.42 µg/mL and the MIC [2] was 0.71 µg/mL. For the same molecule, the MBC (Salmonella typhosa) was 0.35 µg/mL, the MIC (Salmonella typhosa) was 0.35 µg/mL and the PD50 (S. pyogenes; oral) was 3.8 mg/kg. For the same molecule, the PD50 (S. pyogenes; subcutaneous) was 7 mg/kg, the PD50 (S. pneumoniae I; oral) was 1.5 mg/kg and the PD50 (S. pneumoniae I; subcutaneous) was 0.7 mg/kg. For the same molecule, the PD50 (E. coli; oral) was 23.8, the PD50 (E. coli; subcutaneous) was 8.2 and the PD50 (K. pneumoniae; oral) was 9.9. The PD50 (K. pneumoniae; subcutaneous) was 3.8, the PD50 (S. schottmuelleri; oral) was 5.4 mg/kg and the PD50 (S. schottmuelleri; subcutaneous) was 2.4 mg/kg. The PD50 (S. typhosa; oral) was 8 mg/kg, the PD50 (S. typhosa; subcutaneous) was 7.3 mg/kg and the LD50 (in vivo; ip) was 3220 mg/kg. It also gave an LD50 (in vivo; po) of 9100 mg/kg and an LD50 (in vivo; sc) of 4550 mg/kg.

For `CC1(C)S[C@@H]2[C@H](NC(=O)[C@@H](c3ccc(O)cc3)N(C3CCCCO3)C3CCCCO3)C(=O)N2[C@H]1C(=O)O` (relative stereo) [Compound II, {2S-[2α,5α,6β(S*)]}-6-[bis(tetrahydro-2-H-pyran-2-yl)amino]{[(4-hydroxyphenyl)acetyl]amino}-3,3-dimethyl-7-oxo-4-thia-1-azabicyclo[3.2.0]heptane3-carboxylic acid sodium salt], the remaining at 24 h ([3]; 0.9% saline, 2.20 mg/ml, 5° C.) was 100%, the remaining at 48 h ([3]; 0.9% saline, 2.20 mg/ml, 5° C.) was 100% and the remaining at 6 h ([3]; 0.9% saline, 2.25 mg/ml, RT) was 96%. The “Percent Retention” value ([3]; 0.9% saline, 2.25 mg/ml, RT) was 98%, the remaining at 6 h ([3]; 0.9% saline, 2.30 mg/ml, RT) was 96% and the remaining at 24 h ([3]; 0.9% saline, 2.30 mg/ml, RT) was 91%. The remaining at 48 h ([3]; 0.9% saline, 2.30 mg/ml, RT) was 84%, the remaining at 6 h ([3]; 0.9% saline, 29.1 mg/ml, RT) was 97% and the “time for which 90% of potency was maintained” value ([3]; 0.9% saline, 0.2% solution, 5° C.) was at least 192 h. The “time for which 90% of potency was maintained” value ([3]; 0.9% saline, 0.2% solution, room temperature) was “about 24 hours”, the “time for which 90% of potency was maintained” value ([3]; 0.9% saline, 3% solution, 5° C.) was at least 192 h and the “time for which 90% of potency was maintained” value ([3]; 0.9% saline, 3% solution, room temperature) was “less than 24 hours”. It also gave a remaining at 24 h ([3]; 0.9% saline, 31. mg/ml, 5° C.) of 100%, a remaining at 48 h ([3]; 0.9% saline, 31. mg/ml, 5° C.) of 100% and a remaining at 6 h ([3]; 0.9% saline, 34. mg/ml, RT) of 97%. For the same molecule, the remaining at 24 h ([3]; 0.9% saline, 34. mg/ml, RT) was 85%, the remaining at 48 h ([3]; 0.9% saline, 34. mg/ml, RT) was 76% and the “Percent Retention” value ([3]; 5% Dextrose in Water, 2.10 mg/ml, RT) was 73%. The “Percent Retention” value ([3]; 5% Dextrose in Water, 31 mg/ml, RT) was 81%, the remaining at 6 h [3, 5] was 95% and the remaining at 24 h [3, 5] was 89%. The remaining at 48 h [3, 5] was 71%, the remaining at 24 h [3, 6] was 95% and the remaining at 48 h [3, 6] was 91%. It also gave a remaining at 6 h [3, 7] of 96%, a remaining at 24 h [3, 7] of 92% and a remaining at 48 h [3, 7] of 83%. The remaining at 6 h ([3]; 5% dextrose in water, 31 mg/ml, RT) was 100%, the remaining at 24 h [3, 8] was 94% and the remaining at 48 h [3, 8] was 84%. For the same molecule, the “time for which 90% of potency was maintained” value ([3]; 5% dextrose in water, 0.2% solution, 5° C.) was 48 h, the “time for which 90% of potency was maintained” value ([3]; 5% dextrose in water, 0.2% solution, room temperature) was “about 24 hours” and the “time for which 90% of potency was maintained” value ([3]; 5% dextrose in water, 3% solution, 5° C.) was “less than 48 hours”. The “time for which 90% of potency was maintained” value ([3]; 5% dextrose in water, 3% solution, room temperature) was “about 24 hours”, the remaining at 24 h [3, 9] was 100% and the remaining at 48 h [3, 9] was 100%. The MBC (Streptococcus pyogenes) was 6.31 µg/mL, the MIC (Streptococcus pyogenes) was 0.39 µg/mL and the MBC [1] was 0.049 µg/mL. It also gave an MIC [1] of 0.049 µg/mL, an MBC (Staphylococcus aureus) of 0.098 µg/mL and an MIC (Staphylococcus aureus) of 0.098 µg/mL. The MBC (Escherichia coli) was 3.94 µg/mL, the MIC (Escherichia coli) was 3.94 µg/mL and the MBC (Klebsiella pneumoniae) was 0.98 µg/mL. The MIC (Klebsiella pneumoniae) was 0.09 µg/mL, the MBC [2] was 0.98 µg/mL and the MIC [2] was 0.98 µg/mL. It also gave an MBC (Salmonella typhosa) of 0.12 µg/mL, an MIC (Salmonella typhosa) of 0.12 µg/mL and a PD50 (S. pyogenes; oral) of 1.9 mg/kg. It also gave a PD50 (S. pyogenes; subcutaneous) of 3.4 mg/kg, a PD50 (S. pneumoniae I; oral) of 0.7 mg/kg and a PD50 (S. pneumoniae I; subcutaneous) of 0.7 mg/kg. The PD50 (E. coli; oral) was 23, the PD50 (E. coli; subcutaneous) was 18 and the PD50 (K. pneumoniae; oral) was 8.6. The PD50 (K. pneumoniae; subcutaneous) was 5.7, the PD50 (S. schottmuelleri; oral) was 1.9 mg/kg and the PD50 (S. schottmuelleri; subcutaneous) was 5.7 mg/kg. The PD50 (S. typhosa; oral) was 3.6 mg/kg, the PD50 (S. typhosa; subcutaneous) was 1.4 mg/kg and the PD50 (S. aureus; subcutaneous) was 0.5. It also gave an LD50 (in vivo; ip) of 6310 mg/kg, an LD50 (in vivo; po) of over 6310 mg/kg and an LD50 (in vivo; sc) of 4460 mg/kg.

`CCC1CC(F)C(N(C2OC(CC)CC2F)[C@@H](C(=O)N[C@@H]2C(=O)N3[C@@H]2SC(C)(C)[C@@H]3C(=O)O)c2ccc(O)cc2)O1` (relative stereo) [Compound IV, {2S-[2α,5α,6β(S*)]}-6-{bis[5-ethyl-3-fluoro-2-tetrahydrofuranylamino-(4-hydrophenyl)-acetyl]amino}-3,3-dimethyl-7-oxo-4-thia-1-azabicyclo-[3.2.0]heptane-2-carboxylic acid sodium salt] showed an MBC (Streptococcus pyogenes) of over 0.218 µg/mL, an MIC (Streptococcus pyogenes) of 0.027 µg/mL and an MBC (Staphylococcus aureus) of 0.055 µg/mL. The MIC (Staphylococcus aureus) was 0.055 µg/mL, the MBC (Escherichia coli) was 3.5 µg/mL and the MIC (Escherichia coli) was 3.5 µg/mL. It also gave an MBC (Klebsiella pneumoniae) of 0.437 µg/mL, an MIC (Klebsiella pneumoniae) of 0.218 µg/mL and an MBC ([4]; MBC, read-out: Minimum Inhibitory Concentration (MBC)) of 0.027 µg/mL. It also gave an MIC ([4]; read-out: Minimum Inhibitory Concentration (MIC)) of 0.013 µg/mL, a PD50 (S. pyogenes; oral) of 6 mg/kg and a PD50 (S. pyogenes; subcutaneous) of 4.4 mg/kg. The PD50 (S. pneumoniae I; oral) was 0.7 mg/kg, the PD50 (S. pneumoniae I; subcutaneous) was 0.9 mg/kg and the PD50 (E. coli; oral) was 22.1. For the same molecule, the PD50 (E. coli; subcutaneous) was 10.4, the PD50 (K. pneumoniae; oral) was 4.8 and the PD50 (K. pneumoniae; subcutaneous) was 2.4. For the same molecule, the PD50 (S. aureus; oral) was 1.2, the PD50 (S. aureus; subcutaneous) was 0.34 and the PD50 (S. pneumoniae II; oral) was 0.7 mg/kg. The PD50 (S. pneumoniae II; subcutaneous) was 0.5 mg/kg, the PD50 (P. mirabilis; oral) was 1.6 and the PD50 (P. mirabilis; subcutaneous) was 0.4. For the same molecule, the LD50 (in vivo; ip) was 3520 mg/kg, the LD50 (in vivo; po) was 3960 mg/kg and the LD50 (in vivo; sc) was 2800 mg/kg.
